From patent US20020137030A1, “METHOD OF DETECTION OF NEOPLASTIC CELLS” (JOHN HOPKINS UNIVERSITY SCHOOL OF MEDICINE, priority 1995, published 2002)
Entries after “also recorded” stand apart in the source; their conditions may differ.

Legend:
Type in all cases: cell-based, human
p16 [1] = assay: Re-expression of p16 (RT-PCR) after 5-deoxyazacytidine in methylated lung and head and neck cancer cell lines
Procedure: (§1) Total RNA was extracted from cell lines by the guanidium-isothiocyanate-phenol-chloroform method (Chomczynski, P. & Sacchi, N., Analyt. Biochem, 162:156-159, 1987). Total RNA […] or poly-A (0.5 mg) was reverse transcribed by using Superscript II RNaseH^− (Gibco-BRL) reverse transcriptase (200 units) in the presence of hexamers (Pharmacia) and dNTP (Gibco-BRL). The cDNA was then amplified by PCR using the forward primer for exon 1 and the reverse primer for exons 2 or 3 (Kamb, et al., Science 264:436-440, 1994; and Serrano, et al., Nature 366:704-707, 1993) of p16 yielding a 428 or […] fragment respectively, which was run on 1.5% agarose gel. As a control, the […] fragment of p53 was amplified simultaneously. All reactions were repeated at least once. p16 primer sequence were as follows:
In the methylation studies, the cDNA was then amplified by PCR using the forward primer for exon 1 and the reverse primer for exons 2 or 3 of CDKN2/p16 yielding a 428 or […] fragment respectively, which was run on 1.5% agarose gel. As a control, the […] fragment of p53 (or β-actin) was amplified simultaneously. All reactions were repeated at least once.
(§2) Cells were grown in RPMI 1640 with 5-10% fetal calf serum depending on the growth requirements of each line. To assess re-expression, 5-deoxyazacytidine was supplemented to the medium at concentrations of […], and cells were harvested after three and five days.
(§3) In order to test the hypothesis that 5′ CpG island methylation of p16 indeed blocks gene expression, five methylated cell lines (3 NSCLC and 2 HNSCC) were subjected for 3-5 days to different dosages (0.3-1 mmol) of the demethylating agent 5-deoxyazacytidine.

5′ CpG island of p16 = assay: Southern blot of 5′ CpG island methylation of p16 after 5-deoxyazacytidine
Procedure: Southern blots were performed as described (de Bustros, et al., Proc. Natl. Acad. Sci. U.S.A., 85:5693-5697, 1988). Briefly, […] of genomic DNA were digested with of EcoRI (10 U/mg) alone or in combination with the methylation-sensitive enzymes SmaI, EagI or SacII (15 U/mg each) for 16 h as specified by the manufacturers (Gibco-BRL and New England Biolabs), run on a 1% agarose gel, transferred to a Zeta-Probe GT nylon membrane (Bio-Rad), and probed with 25 ng of the 0.35 kb and 0.5 kb PCR products of exons 1 and 2 of p16 after random primer labelling (Feinberg, A. P. & Vogelstein, B. A, Annal. Biochem. 137:266-267, 1984). The primer sequences for the PE1 probe are as follows: sense 5′ GAAGAAAGAGGAGGGGCTG (SEQ ID NO:20), and antisense 5′ […] (SEQ ID NO:21), amplified with an annealing temperature of 60° C. by adding 3.6% formamide to the PCR buffer. The c-abl probe was provided by J.-P. Issa. The blots were then exposed in a phosphorimager (MolecularDynamics). All cases with a partial methylation pattern were repeated to exclude imcomplete enzymatic activity.
as §2, §3

p16 [2] = assay: Re-expression of p16 mRNA (RT-PCR) after 5-deoxyazacytidine in colon cancer cell lines RKO and SW480; details: 3 days
Procedure: as §1
In the methylation studies, the cDNA was then amplified by PCR using the forward primer for exon 1 and the reverse primer for exons 2 or 3 of CDKN2/p16 yielding a 428 or […] fragment respectively, which was run on 1.5% agarose gel. As a control, the […] fragment of p53 (or β-actin) was amplified simultaneously. All reactions were repeated at least once. […]
In contrast, normal breast and 3 of 4 tested colon mucosa samples had readily detectable p16 message. […]

cancer cell lines = assay: Effects on cell growth, morphology and viability of cancer cell lines; details: non-specific; also seen in lines with homozygous deletions of p16, independent of methylation status
Procedure: as §2
However, these effects were non-specific and observed in cell lines with homozygous deletions of p16, and with retention of p16 alleles independent of methylation status. Therefore, we cannot attribute these non-specific effects to re-expression of p16, since other genes might also be affected by azacytidine.

Structure (SMILES): Nc1ncn([C@H]2C[C@H](O)[C@@H](CO)O2)c(=O)n1 [5-deoxyazacytidine]
- re-expression of p16 message by RT-PCR (p16 [1]; five methylated cell lines (3 NSCLC and 2 HNSCC), 0.3-1 mmol, 3-5 days, each dose and time tested): re-expressed the message of p16
- re-expression of p16 (FIG. 5b) (p16 [1]; methylated HNSCC cell lines (lanes 4 and 6)): re-express p16
- reexpression of p16 message on reversal of methylation (p16 [1]; methylated cell lines, summary statement): reexpression of p16 message
- re-expression of p16, 428 bp RT-PCR product (FIG. 5d) (p16 [1]; transcriptionally silenced lines U1752 and H157, all doses and times): re-express p16
- demethylation of p16 5′ CpG island, EcoRI and SmaI Southern (FIG. 5c) (5′ CpG island of p16; line H157): Partial demethylation
- demethylation of p16 5′ CpG island, EcoRI and SmaI Southern (FIG. 5c) (5′ CpG island of p16; line H 1752, 1 and 0.5 mmol, 3 days and 5 days, all dosages and time points): demethylation was seen
- demethylation of the monitored CpG sites (5′ CpG island of p16; methylated cell lines, associated with reversal of the transcriptional block of p16): partial demethylation
- p16 mRNA by RT-PCR after treatment (p16 [2]): p16 gene mRNA was seen; also recorded: detectable p16 mRNA
- effects on cell growth, morphology, and viability (cancer cell lines): profound effects
